The target in series [1] is T1, GPR55 receptor (Homo sapiens, UniProt Q9Y2T6).
T1 construct: expressed in transfected cells
Nature of the series: GPR55 agonist activity, real-time cell impedance (xCELLigence) in hGPR55-HEK293 cells. The note with it: mean (95% confidence interval); for Emax: read-out: Emax (%), agonist action on GPR55. In kind it is cell-based. As for the experimental part:
(§1) In the present invention, the activity of the compounds of the invention on the GPR55 receptor was assessed by performing in vitro assays with real-time cell impedance measurements (xCELLigence experiments). These assays were performed on a HEK293 human embryonic kidney cell line overexpressing the recombinant GPR55 receptor in stable form (hGPR55-HEK293). The cells were seeded one day prior to carrying out the stimulation with the exemplary compounds of the present invention.
Activation of the GPR55 receptor by an agonist compound causes a cellular impedance detected by the system and compared to lysophosphatidylinositol (LPI), a reference GPR55 ligand. The effect of LPI measured at a concentration of 1 μM was set at 100%. […] Therefore, dose-response curves were determined at this time. Cell impedance values were normalized for each well, just prior to addition of the inventive compound of the invention to be evaluated.

The target in series [2] is T1, GPR55 receptor. Nature of the series: GPR55 antagonist activity: inhibition of LPI-mediated GPR55 stimulation (xCELLigence) in hGPR55-HEK293 cells. Format: cell-based. The note with it: LPI alone or with example compound at 1 μM, mean (95% confidence interval). As for the experimental part: as §1
The ability of the exemplary compounds of the patent to inhibit LPI-mediated GPR55 receptor stimulation has been evaluated.
Values represent the mean with a 95% confidence interval calculated with 4 independent experiments performed in duplicate. Significant differences with respect to LPI values are considered due to lack of overlap of confidence intervals.

Setting [3] is: maximum effect relative to LPI 1 μM = 100%.

T1 sequence (Q9Y2T6 whole entry): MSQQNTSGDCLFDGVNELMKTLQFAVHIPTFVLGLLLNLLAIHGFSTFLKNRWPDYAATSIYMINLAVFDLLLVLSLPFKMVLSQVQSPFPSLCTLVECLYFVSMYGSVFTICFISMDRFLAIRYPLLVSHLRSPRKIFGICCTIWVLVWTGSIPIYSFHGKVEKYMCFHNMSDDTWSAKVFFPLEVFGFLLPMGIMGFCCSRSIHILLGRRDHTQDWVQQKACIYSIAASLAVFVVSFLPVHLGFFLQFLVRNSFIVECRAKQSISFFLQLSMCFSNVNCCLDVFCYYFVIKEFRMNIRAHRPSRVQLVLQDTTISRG

For the compound `COc1ccc2c(c1)OC(C)(C)c1cn(CCN3CCN(C(=O)c4ccco4)CC3)nc1-2` [Example 2, 2-(2-(4-(2-furoyl)piperazinyl)ethyl)-2,4-dihydro-7-methoxy-4,4-dimethylchromeno[4,3-c]pyrazole], the Emax at GPR55 receptor [1] (setting [3]) is 43%.

As for `COc1ccc2c(c1)OC(C)(C)c1cn(CCN3CCN(C(=O)c4ccccc4)CC3)nc1-2` [Example 4, 2-(2-(4-benzoyl-piperazinyl)ethyl)-2,4-dihydro-7-methoxy-4,4-dimethylchromeno[4,3-c]pyrazole], the Emax on GPR55 receptor [1] (setting [3]) turned out to be 51%.

Compound `COc1ccc2c(c1)OC(C)(C)c1cn(CCN3CCN(C(=O)c4cccs4)CC3)nc1-2` [Example 6, 2-(2-(4-(2-thienoyl)piperazinyl)ethyl)-2,4-dihydro-7-methoxy-4,4-dimethylchromeno[4,3-c]pyrazole] yielded a melting point of 163 to 165 °C. In addition, at GPR55 receptor [1] (setting [3]), the Emax turned out to be 45%. The like results for `COc1ccc2c(c1)OC(C)(C)c1cn(CCN3CCN(C(=O)COc4ccccc4)CC3)nc1-2` [Example 7, 2-(2-(4-phenoxyacetylpiperazinyl)ethyl)-2,4-dihydro-7-methoxy-4,4-dimethylchromeno[4,3-c]pyrazole] were, in that order, 177 to 179 °C and 52%. Compound `COc1ccc2c(c1)OC(C)(C)c1cn(CCN3CCN(C(=O)C4CCCO4)CC3)nc1-2` (stereo not shown) [Example 8, 2-(2-(4-(2-tetrahydrofuroyl)piperazinyl)ethyl)-2,4-dihydro-7-methoxy-4,4-dimethylchromeno[4,3-c]pyrazole] returned a melting point of 158 to 160 °C. The Emax at GPR55 receptor [1] (setting [3]) was found to be 51%. The like results for `COc1ccc2c(c1)OC(C)(C)c1cn(CCN3CCN(C(=O)C4CCCCC4)CC3)nc1-2` [Example 9, 2-(2-(4-cyclohexylcarbonyl-piperazinyl)ethyl)-2,4-dihydro-7-methoxy-4,4-dimethylchromeno[4,3-c]pyrazole] were, in that order, 151 to 152 °C and 47%. In the case of `COc1ccc2c(c1)OC(C)(C)c1cn(CCN3CCN(C(=O)C(C)(C)C)CC3)nc1-2` [Example 10, 2-(2-(4-pivaloyl-piperazinyl)ethyl)-2,4-dihydro-7-methoxy-4,4-dimethylchromeno[4,3-c]pyrazole], the Emax on GPR55 receptor [1] (setting [3]) turned out to be 49%. Still for that read-out and setting: in the case of `COc1ccc2c(c1)OC(C)(C)c1cn(CNC(=O)CN3CCN(c4ccccc4OC)CC3)nc1-2` [Example 14, 2-(2-(4-(2-methoxyphenyl)piperazinyl)acetamidomethyl)-2,4-dihydro-7-methoxy-4,4-dimethylchromeno[4,3-c]pyrazole] it was 51%.

As to “lysophosphatidylinositol [LPI, reference compound]”, the concentration giving a half-maximal response (EC50) at GPR55 receptor [1] (hGPR55-HEK293 cells, xCELLigence, 5 minutes after addition, 4 experiments, read-out: EC50 (nM), agonist action on GPR55) is 2.82 nM; at GPR55 receptor [2] (hGPR55-HEK293 cells, read-out: EC50 (nM) of LPI in the presence of example compound) it was 1.6 nM. Further, the “Emax (%), agonist action on GPR55” value on GPR55 receptor [1] (setting [3]) is reported as 100 (81-118) %. For the same compound, the “Emax (%) of LPI in the presence of example compound” value at GPR55 receptor [2] (relative to LPI activity) is listed as 99 (90-108) %.

As a reminder, the Emax is the size of the effect at its maximum, as opposed to the concentration needed. In general, melting point refers to the temperature, or range, at which the solid turns liquid. In general, EC50 refers to the concentration giving half of the maximal effect.

Source of the values: US10435412B2, “Selective modulators of the activity of the GPR55 receptor: chromenopyrazole derivatives” (Consejo Superior de Investigaciones Cientificas (CSIC), priority 2015, dated 2019).
